We go through one molecule from ChEMBL document CHEMBL1126318, “Discovery of a potent substance P antagonist: recognition of the key molecular determinant” (J Med Chem, 1992).

The Ki is a dissociation constant, usually derived from enzyme kinetics or from competition with a known ligand.

In this experiment the target is Substance-P receptor (Homo sapiens, UniProt P25103). The experiment can be described thus: In vitro binding affinity for the Tachykinin receptor 1 in human IM-9 cell using [125I]BH-SP of the compound. It is filed as cell-based.
Substance-P receptor, sequence (P25103 whole entry): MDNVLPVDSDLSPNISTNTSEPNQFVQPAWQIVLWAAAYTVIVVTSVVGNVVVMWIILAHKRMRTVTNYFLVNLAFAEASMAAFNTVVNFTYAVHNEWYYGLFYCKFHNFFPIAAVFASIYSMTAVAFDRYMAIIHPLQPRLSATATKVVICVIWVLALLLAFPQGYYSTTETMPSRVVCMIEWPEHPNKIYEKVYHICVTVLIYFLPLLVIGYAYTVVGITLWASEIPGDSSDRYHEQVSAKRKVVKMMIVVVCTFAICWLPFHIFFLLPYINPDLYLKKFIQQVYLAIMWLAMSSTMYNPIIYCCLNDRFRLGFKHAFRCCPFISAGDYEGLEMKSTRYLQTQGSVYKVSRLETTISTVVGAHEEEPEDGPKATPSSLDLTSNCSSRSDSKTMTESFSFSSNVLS

`COc1ccccc1CN[C@H]1CCCN[C@H]1C(c1ccccc1)c1ccccc1` (racemic) came in with a Ki of 49 nM.
